Legend:
Kidney [1] = assay: Biodistribution in iv dosed Sprague-Dawley rats kidneys after 30 mins by gamma counter; format: ADME, organism-based; settings: rat, in vivo, 0.5 h
Bone [2] = assay: Biodistribution in iv dosed Sprague-Dawley rats bone after 2 mins by gamma counter; format: ADME, organism-based, Bone element; settings: rat, in vivo
Brain [3] = assay: Biodistribution in iv dosed Sprague-Dawley rats brain after 60 mins by gamma counter; format: ADME, organism-based; settings: rat, in vivo, 1 h
Lung [4] = assay: Biodistribution in iv dosed Sprague-Dawley rats lung after 30 mins by gamma counter; format: ADME, organism-based; settings: rat, in vivo, 0.5 h
Blood = assay: Biodistribution in iv dosed Sprague-Dawley rats blood after 0.5 min by gamma counter; format: ADME, organism-based; settings: rat, in vivo
[5] = Biodistribution in iv dosed Sprague-Dawley rats stomach after 2 mins by gamma counter; format: ADME, organism-based; settings: rat, in vivo
Lung [6] = assay: Biodistribution in iv dosed Sprague-Dawley rats lung after 2 mins by gamma counter; format: ADME, organism-based; settings: rat, in vivo
Bone [7] = assay: Biodistribution in iv dosed Sprague-Dawley rats bone after 60 mins by gamma counter; format: ADME, organism-based, Bone element; settings: rat, in vivo, 1 h
Muscle tissue = assay: Biodistribution in iv dosed Sprague-Dawley rats muscle after 10 mins by gamma counter; format: ADME, organism-based; settings: rat, in vivo
Heart [8] = assay: Biodistribution in iv dosed Sprague-Dawley rats heart after 10 mins by gamma counter; format: ADME, organism-based; settings: rat, in vivo
Brain [9] = assay: Biodistribution in iv dosed Sprague-Dawley rats brain after 30 mins by gamma counter; format: ADME, organism-based; settings: rat, in vivo, 0.5 h
Liver [10] = assay: Biodistribution in iv dosed Sprague-Dawley rats liver after 10 mins by gamma counter; format: ADME, organism-based; settings: rat, in vivo
[11] = Biodistribution in iv dosed Sprague-Dawley rats small intestine after 2 mins by gamma counter; format: ADME, organism-based; settings: rat, in vivo
Spleen [12] = assay: Biodistribution in iv dosed Sprague-Dawley rats spleen after 0.5 min by gamma counter; format: ADME, organism-based; settings: rat, in vivo
[13] = Biodistribution in iv dosed Sprague-Dawley rats large intestine after 10 mins by gamma counter; format: ADME, organism-based; settings: rat, in vivo
Lung [14] = assay: Biodistribution in iv dosed Sprague-Dawley rats lung after 60 mins by gamma counter; format: ADME, organism-based; settings: rat, in vivo, 1 h
Heart [15] = assay: Biodistribution in iv dosed Sprague-Dawley rats heart after 0.5 min by gamma counter; format: ADME, organism-based; settings: rat, in vivo
[16] = Biodistribution in iv dosed Sprague-Dawley rats small intestine after 60 mins by gamma counter; format: ADME, organism-based; settings: rat, in vivo, 1 h
[17] = Drug uptake in low GABAA expression areas of Wistar rat brain thalamus/striatum cortex at 0.1 MBq/ml after 60 mins by autoradiographic analysis; format: ADME, tissue-based; settings: in vivo, 1 h
[18] = Biodistribution in iv dosed Sprague-Dawley rats bladder and urine after 2 mins by gamma counter; format: ADME, organism-based; settings: rat, in vivo
[19] = Biodistribution in iv dosed Sprague-Dawley rats large intestine after 2 mins by gamma counter; format: ADME, organism-based; settings: rat, in vivo
Lung [20] = assay: Biodistribution in iv dosed Sprague-Dawley rats lung after 0.5 min by gamma counter; format: ADME, organism-based; settings: rat, in vivo
Spleen [21] = assay: Biodistribution in iv dosed Sprague-Dawley rats spleen after 2 mins by gamma counter; format: ADME, organism-based; settings: rat, in vivo
[22] = Biodistribution in iv dosed Sprague-Dawley rats stomach after 0.5 min by gamma counter; format: ADME, organism-based; settings: rat, in vivo
[23] = Biodistribution in iv dosed Sprague-Dawley rats small intestine after 10 mins by gamma counter; format: ADME, organism-based; settings: rat, in vivo
Brain [24] = assay: Biodistribution in iv dosed Sprague-Dawley rats brain after 0.5 min by gamma counter; format: ADME, organism-based; settings: rat, in vivo
[25] = Biodistribution in iv dosed Sprague-Dawley rats bladder and urine after 10 mins by gamma counter; format: ADME, organism-based; settings: rat, in vivo
Liver [26] = assay: Biodistribution in iv dosed Sprague-Dawley rats liver after 0.5 min by gamma counter; format: ADME, organism-based; settings: rat, in vivo
Brain [27] = assay: Biodistribution in iv dosed Sprague-Dawley rats brain after 2 mins by gamma counter; format: ADME, organism-based; settings: rat, in vivo
Kidney [28] = assay: Biodistribution in iv dosed Sprague-Dawley rats kidneys after 60 mins by gamma counter; format: ADME, organism-based; settings: rat, in vivo, 1 h
Liver [29] = assay: Biodistribution in iv dosed Sprague-Dawley rats liver after 60 mins by gamma counter; format: ADME, organism-based; settings: rat, in vivo, 1 h
Heart [30] = assay: Biodistribution in iv dosed Sprague-Dawley rats heart after 60 mins by gamma counter; format: ADME, organism-based; settings: rat, in vivo, 1 h
Bone [31] = assay: Biodistribution in iv dosed Sprague-Dawley rats bone after 30 mins by gamma counter; format: ADME, organism-based, Bone element; settings: rat, in vivo, 0.5 h
[32] = Drug uptake in low GABAA expression areas of Wistar rat brain prefrontal cortex at 0.1 MBq/ml after 60 mins by autoradiographic analysis; format: ADME, tissue-based; settings: in vivo, 1 h
[33] = Biodistribution in iv dosed Sprague-Dawley rats small intestine after 30 mins by gamma counter; format: ADME, organism-based; settings: rat, in vivo, 0.5 h
Heart [34] = assay: Biodistribution in iv dosed Sprague-Dawley rats heart after 30 mins by gamma counter; format: ADME, organism-based; settings: rat, in vivo, 0.5 h
[35] = Biodistribution in iv dosed Sprague-Dawley rats bladder and urine after 30 mins by gamma counter; format: ADME, organism-based; settings: rat, in vivo, 0.5 h
Bone [36] = assay: Biodistribution in iv dosed Sprague-Dawley rats bone after 10 mins by gamma counter; format: ADME, organism-based, Bone element; settings: rat, in vivo

SMILES: O=C(NCC[18F])c1c[nH]c2ccc(Cc3ccccc3)cc2c1=O
- Drug uptake (Kidney [1]): 1.5 %ID
- Drug uptake (Bone [2]): 3 %ID
- Drug uptake (Brain [3]): 0 %ID
- Drug uptake (Lung [4]): 0.4 %ID
- Drug uptake (Blood): 8.7 %ID
- Drug uptake [5]: 1.2 %ID
- Drug uptake (Lung [6]): 1.5 %ID
- Drug uptake (Bone [7]): 1.4 %ID
- Drug uptake (Muscle tissue): 27.2 %ID
- Drug uptake (Heart [8]): 0.3 %ID
- Drug uptake (Brain [9]): 0.1 %ID
- Drug uptake (Liver [10]): 33.7 %ID
- Drug uptake [11]: 7 %ID
- Drug uptake (Spleen [12]): 0.2 %ID
- Drug uptake [13]: 1.7 %ID
- Drug uptake (Lung [14]): 0.1 %ID
- Drug uptake (Heart [15]): 2 %ID
- Drug uptake [16]: 74.5 %ID
- Drug uptake [17]: 76%
- Drug uptake [18]: 0 %ID
- Drug uptake [19]: 1.3 %ID
- Drug uptake (Lung [20]): 2.9 %ID
- Drug uptake (Spleen [21]): 0.3 %ID
- Drug uptake [22]: 0.8 %ID
- Drug uptake [23]: 24.5 %ID
- Drug uptake (Brain [24]): 0.1 %ID
- Drug uptake [25]: 0.8 %ID
- Drug uptake (Liver [26]): 14.6 %ID
- Drug uptake (Brain [27]): 0.1 %ID
- Drug uptake (Kidney [28]): 0.5 %ID
- Drug uptake (Liver [29]): 4.8 %ID
- Drug uptake (Heart [30]): 0.1 %ID
- Drug uptake (Bone [31]): 1.5 %ID
- Drug uptake [32]: 76%
- Drug uptake [33]: 50.3 %ID
- Drug uptake (Heart [34]): 0.2 %ID
- Drug uptake [35]: 4.2 %ID
- Drug uptake (Bone [36]): 1.7 %ID

Source: ChEMBL document CHEMBL1208702, “Use of 2-[(18)F]fluoroethylazide for the Staudinger ligation - Preparation and characterisation of GABA(A) receptor binding 4-quinolones” (Bioorg Med Chem Lett, 2010)
